Assay results: patent US20260085053A1, “BENZOFURAN DERIVATIVES AS SIK INHIBITORS AND THE USE THEREOF” (BEONE MEDICINES I GMBH, priority 2023, published 2026)

Key:
[1] = biological target: T1, SIK1 kinase (aa1-303, Thermo Fisher) (Homo sapiens, UniProt P57059); assay: Biochemical activities determination for SIK1 protein (TR-FRET); details: 110 uM ATP, 0.5 μM STK1 substrate
T1 construct: SIK1 kinase (aa1-303, Thermo Fisher); purchased Thermo Fisher
Protocol: 1. Biochemical Activities Determination for SIK1 Protein
(§1) Compounds were tested for inhibition of SIK1 kinase (aa1-303, Thermo Fisher) in assays based on the time-resolved fluorescence-resonance energy transfer (TR-FRET) methodology. The assays were carried out in 384-well low volume white plates in a reaction mixture containing SIK1 kinase, 110 uM ATP, 0.5 μM STK1 substrate and 0-10 μM compound in buffer containing 25 mM Tris, 0.01% Trition X-100, 0.5 mM EGTA, 5 mM MgCl2, 2.5 mM DTT, pH=7.5. The kinase was incubated with compounds for 60 minutes at room temperature and the reaction was initiated by the addition of ATP and STK1 substrate. After reaction at room temperature for 180 minutes, an equal volume of stop/detection solution was added according to the manufacture's instruction (CisBio Bioassays). The stop/detection solution contained STK Antibody-Cryptate and XL665-conjugated streptavidin (Cat: 62ST1PEC, Cisbio) in Detection Buffer (Cat: 62SDBRDF, Cisbio). Plates were sealed and incubated at room temperature for overnight, and the TR-FRET signals (ratio of fluorescence emission at 665 nm over emission at 620 nm with excitation at 337 nm wavelength) were recorded on a PHERAstar FS plate reader (BMG Labtech). Phosphorylation of STK1 substrate led to the binding of STK Antibody-Cryptate to the biotinylated SIK1 substrate, which places fluorescent donor (Eu^3+ crypate) in close proximity to the accepter (Streptavidin-XL665), thus resulting in a high degree of fluorescence resonance energy transfer from the donor fluorophore (at 620 nm) to the acceptor fluorophore (at 665 nm). […] The IC50 for each compound was derived from fitting the data to the four-parameter logistic equation by Dotmatics.

[2] = biological target: T2, SIK2 kinase (full length, Thermo Fisher) (Homo sapiens, UniProt Q9H0K1); assay: Biochemical activities determination for SIK2 protein (TR-FRET); details: 80 uM ATP, 0.5 μM substrate
T2 construct: SIK2 kinase (full length, Thermo Fisher); purchased Thermo Fisher
Protocol: 2. Biochemical Activities Determination for SIK2 Protein
as §1, with “of SIK2” for “of SIK1”, “kinase (full length,” for “kinase (aa1-303,”, “containing SIK2” for “containing SIK1”, “kinase, 80” for “kinase, 110”, “μM […]” for “μM STK1”, “biotinylated STK1” for “biotinylated SIK1”

[3] = biological target: T3, SIK3 kinase (aa59-365, Thermo Fisher) (Homo sapiens, UniProt Q9Y2K2); assay: Biochemical activities determination for SIK3 protein (TR-FRET); details: 125 uM ATP, 0.5 μM STK1 substrate
T3 construct: SIK3 kinase (aa59-365, Thermo Fisher); purchased Thermo Fisher
Protocol: 3. Biochemical Activities Determination for SIK3 Protein
Compounds were tested for inhibition of SIK3 kinase (aa59-365, Thermo Fisher) in assays based on the time-resolved fluorescence-resonance energy transfer (TR-FRET) methodology. The assays were carried out in 384-well low volume white plates in a reaction mixture containing SIK3 kinase, 125 uM ATP, 0.5 μM STK1 substrate and 0-10 μM compound in buffer containing 25 mM Tris, 0.01% Trition X-100, 0.5 mM EGTA, 5 mM MgCl2, 2.5 mM DTT, PH=7.5. The kinase was incubated with compound for 60 minutes at room temperature and the reaction was initiated by the addition of ATP and STK1 substrate. After reaction at room temperature for 180 minutes, an equal volume of stop/detection solution was added according to the manufacture's instruction (CisBio Bioassays). The stop/detection solution contained STK Antibody-Cryptate and XL665-conjugated streptavidin (Cat: 62ST1PEC, Cisbio) in Detection Buffer (Cat: 62SDBRDF, Cisbio). Plates were sealed and incubated at room temperature for overnight, and the TR-FRET signals (ratio of fluorescence emission at 665 nm over emission at 620 nm with excitation at 337 nm wavelength) were recorded on a PHERAstar FS plate reader (BMG Labtech). Phosphorylation of STK1 substrate led to the binding of STK Antibody-Cryptate to the biotinylated STK1 substrate, which places fluorescent donor (Eu^3+ crypate) in close proximity to the accepter (Streptavidin-XL665), thus resulting in a high degree of fluorescence resonance energy transfer from the donor fluorophore (at 620 nm) to the acceptor fluorophore (at 665 nm). […] The IC50 for each compound was derived from fitting the data to the four-parameter logistic equation by Dotmatics.

T1 sequence (P57059 1-303): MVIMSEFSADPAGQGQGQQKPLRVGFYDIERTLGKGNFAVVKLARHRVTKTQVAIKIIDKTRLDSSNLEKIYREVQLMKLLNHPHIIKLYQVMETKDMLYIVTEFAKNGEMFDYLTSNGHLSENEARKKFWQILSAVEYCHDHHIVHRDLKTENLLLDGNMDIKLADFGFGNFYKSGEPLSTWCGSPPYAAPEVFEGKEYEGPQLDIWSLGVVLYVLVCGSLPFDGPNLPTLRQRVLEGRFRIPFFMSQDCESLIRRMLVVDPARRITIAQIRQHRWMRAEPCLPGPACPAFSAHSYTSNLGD
T2 sequence (Q9H0K1 whole entry): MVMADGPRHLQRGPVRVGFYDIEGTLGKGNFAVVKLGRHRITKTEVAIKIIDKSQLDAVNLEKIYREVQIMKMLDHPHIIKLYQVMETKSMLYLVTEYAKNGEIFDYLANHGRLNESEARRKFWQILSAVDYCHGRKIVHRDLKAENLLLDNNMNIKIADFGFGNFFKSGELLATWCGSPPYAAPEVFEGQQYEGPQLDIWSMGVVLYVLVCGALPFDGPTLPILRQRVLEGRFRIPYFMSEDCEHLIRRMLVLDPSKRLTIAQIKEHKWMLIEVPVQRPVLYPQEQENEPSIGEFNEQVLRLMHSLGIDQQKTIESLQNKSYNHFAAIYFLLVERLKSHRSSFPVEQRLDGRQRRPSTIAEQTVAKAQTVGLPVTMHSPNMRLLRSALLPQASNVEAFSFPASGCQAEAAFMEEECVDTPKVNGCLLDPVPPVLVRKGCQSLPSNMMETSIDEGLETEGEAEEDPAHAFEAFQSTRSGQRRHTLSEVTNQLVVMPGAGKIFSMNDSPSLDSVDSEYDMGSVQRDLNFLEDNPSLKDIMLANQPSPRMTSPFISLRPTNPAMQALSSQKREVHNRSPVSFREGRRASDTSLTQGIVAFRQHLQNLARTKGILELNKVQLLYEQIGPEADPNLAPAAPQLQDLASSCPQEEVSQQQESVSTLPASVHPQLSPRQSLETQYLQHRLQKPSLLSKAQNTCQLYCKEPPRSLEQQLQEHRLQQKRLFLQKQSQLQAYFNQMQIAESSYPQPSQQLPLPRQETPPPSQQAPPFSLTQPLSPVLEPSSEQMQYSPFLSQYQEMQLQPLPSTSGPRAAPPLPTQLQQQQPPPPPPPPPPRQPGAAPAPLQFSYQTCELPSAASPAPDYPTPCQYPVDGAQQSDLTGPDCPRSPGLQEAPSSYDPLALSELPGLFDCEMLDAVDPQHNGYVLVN
T3 sequence (Q9Y2K2 59-365): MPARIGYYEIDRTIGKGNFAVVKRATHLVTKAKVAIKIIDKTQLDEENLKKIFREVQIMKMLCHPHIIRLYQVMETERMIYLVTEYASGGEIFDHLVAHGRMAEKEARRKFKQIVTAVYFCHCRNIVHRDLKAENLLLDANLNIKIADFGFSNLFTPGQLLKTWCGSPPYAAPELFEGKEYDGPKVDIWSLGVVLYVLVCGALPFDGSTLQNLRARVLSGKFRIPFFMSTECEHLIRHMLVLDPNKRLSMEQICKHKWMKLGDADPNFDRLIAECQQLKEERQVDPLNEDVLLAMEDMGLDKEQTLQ

| SMILES | IC50 [1] [nM] | IC50 [2] [nM] | IC50 [3] [nM] |
| --- | --- | --- | --- |
| COc1cc(-c2coc3cc(OCCN4CCCC[C@H]4C)ccc23)cc(OC(F)F)c1C(=O)N[C@@H]1C[C@@H]1F [Compound 92, 2-(difluoromethoxy)-N-((1R,2S)-2-fluorocyclopropyl)-6-methoxy-4-(6-(2-((R)-2-methylpiperidin-1-yl)ethoxy)benzofuran-3-yl)benzamide] | 3010 | 32 | 104 |
| COc1cc(-c2coc3cc(OCCN(C)C)ccc23)cc(OC(F)F)c1C(=O)N[C@@H]1C[C@@H]1F [Compound 73, 2-(difluoromethoxy)-4-(6-(2-(dimethylamino)ethoxy)benzofuran-3-yl)-N-((1R,2S)-2-fluorocyclopropyl)-6-methoxybenzamide] | 3260 | 24 | 65 |
| COc1cc(-c2coc3cc(OCCN4CCC(C)CC4)ccc23)cc(OC(F)F)c1C(=O)N[C@@H]1C[C@@H]1F [Compound 94, 2-(difluoromethoxy)-N-((1R,2S)-2-fluorocyclopropyl)-6-methoxy-4-(6-(2-(4-methylpiperidin-1-yl)ethoxy)benzofuran-3-yl)benzamide] | 2870 | 33 | 74 |
| CN1CC[C@H]1COc1cc(-c2coc3cc(OCCN4CCCC4)ccc23)cc(OC(F)F)c1C(=O)NC1CC1 [Compound 117, (S)—N-cyclopropyl-2-(difluoromethoxy)-6-((1-methylazetidin-2-yl)methoxy)-4-(6-(2-(pyrrolidin-1-yl)ethoxy)benzofuran-3-yl)benzamide] | > 10000 | 2940 | > 10000 |
| O=C(NC1CC1)c1c(OC(F)F)cc(-c2coc3cc(OCCN4CCCC4)ccc23)cc1OC1CC1 [Compound 121, 2-cyclopropoxy-N-cyclopropyl-6-(difluoromethoxy)-4-(6-(2-(pyrrolidin-1-yl)ethoxy)benzofuran-3-yl)benzamide] | > 10000 | 438 | 2120 |
| COc1cc(-c2coc3cc(OCCN4CCCC4)ccc23)cc(OC(F)F)c1C(=O)NC1CCC1 [Compound 129, N-cyclobutyl-2-(difluoromethoxy)-6-methoxy-4-(6-(2-(pyrrolidin-1-yl)ethoxy)benzofuran-3-yl)benzamide] | > 10000 | 146 | 683 |
| CN1CCC[C@@H]1COc1cc(-c2coc3cc(OCCN4CCCC4)ccc23)cc(OC(F)F)c1C(=O)NC1CC1 [Compound 107, (R)—N-cyclopropyl-2-(difluoromethoxy)-6-((1-methylpyrrolidin-2-yl)methoxy)-4-(6-(2-(pyrrolidin-1-yl)ethoxy)benzofuran-3-yl)benzamide] | > 10000 | 5610 | > 10000 |
| CN1CC[C@@H]1COc1cc(-c2coc3cc(OCCN4CCCC4)ccc23)cc(OC(F)F)c1C(=O)NC1CC1 [Compound 114, (R)—N-cyclopropyl-2-(difluoromethoxy)-6-((1-methylazetidin-2-yl)methoxy)-4-(6-(2-(pyrrolidin-1-yl)ethoxy)benzofuran-3-yl)benzamide] | > 10000 | 745 | 5490 |
| COc1cc(-c2coc3cc(-c4cnn(C5CN(C)C5)c4)ccc23)cc(OC(F)F)c1C(=O)N[C@@H]1C[C@@H]1F [Compound 37, 2-(difluoromethoxy)-N-((1R,2S)-2-fluorocyclopropyl)-6-methoxy-4-(6-(1-(1-methylazetidin-3-yl)-1H-pyrazol-4-yl)benzofuran-3-yl)benzamide] | 25 | 1.4 | 4.2 |
| O=C(NC1CC1)c1c(OCCO)cc(-c2coc3cc(OCCN4CCCC4)ccc23)cc1OC(F)F [Compound 103, N-cyclopropyl-2-(difluoromethoxy)-6-(2-hydroxyethoxy)-4-(6-(2-(pyrrolidin-1-yl)ethoxy)benzofuran-3-yl)benzamide] | 9500 | 114 | 410 |
| CN1CC[C@@H](Oc2cc(-c3coc4cc(OCCN5CCCC5)ccc34)cc(OC(F)F)c2C(=O)NC2CC2)C1 [Compound 110, (R)—N-cyclopropyl-2-(difluoromethoxy)-6-((1-methylpyrrolidin-3-yl)oxy)-4-(6-(2-(pyrrolidin-1-yl)ethoxy)benzofuran-3-yl)benzamide] | > 10000 | 3850 | > 10000 |

The remaining lines, values ahead:

| IC50 [1] [nM] | IC50 [2] [nM] | IC50 [3] [nM] | SMILES |
| --- | --- | --- | --- |
| 347 | 17 | 34 | COc1cc(-c2coc3cc(-c4cnn(C5CCOCC5)c4)ccc23)cc2c1C(=O)N(CC(F)(F)F)CC2 [Compound 50, 8-methoxy-6-(6-(1-(tetrahydro-2H-pyran-4-yl)-1H-pyrazol-4-yl)benzofuran-3-yl)-2-(2,2,2-trifluoroethyl)-3,4-dihydroisoquinolin-1 (2H)-one] |
| 1550 | 49 | 155 | COc1cc(-c2coc3cc(-c4cnn(C)c4)cc(F)c23)cc2c1C(=O)N(CC(F)(F)F)CC2 [Example 11, 6-(4-fluoro-6-(1-methyl-1H-pyrazol-4-yl)benzofuran-3-yl)-8-methoxy-2-(2,2,2-trifluoroethyl)-3,4-dihydroisoquinolin-1 (2H)-one] |
| > 10000 | 73 | 415 | COc1cc(-c2coc3cc(OCCN4CCCCC4)ccc23)cc2c1C(=O)N(CC(F)(F)F)CC2 [Compound 64, 8-methoxy-6-(6-(2-(piperidin-1-yl)ethoxy)benzofuran-3-yl)-2-(2,2,2-trifluoroethyl)-3,4-dihydroisoquinolin-1 (2H)-one] |
| 2280 | 59 | 186 | COc1cc(-c2coc3cc(-c4cnn(C)c4)c(F)cc23)cc2c1C(=O)N(CC(F)(F)F)CC2 [Example 12, 6-(5-fluoro-6-(1-methyl-1H-pyrazol-4-yl)benzofuran-3-yl)-8-methoxy-2-(2,2,2-trifluoroethyl)-3,4-dihydroisoquinolin-1 (2H)-one] |
| 289 | 11 | 15 | Cn1cc(-c2ccc3c(-c4cc5c(c(OC(F)F)c4)C(=O)N(CC#N)CC5)coc3c2)cn1 [Compound 21, 2-(8-(difluoromethoxy)-6-(6-(1-methyl-1H-pyrazol-4-yl)benzofuran-3-yl)-1-oxo-3,4-dihydroisoquinolin-2 (1H)-yl) acetonitrile] |
